Biological target: T1, human IKK-β (Homo sapiens, UniProt O14920)
T1 construct: A cDNA fragment encoding human IKK-β open reading frame was generated by PCR; His tag (from pcDNA3.1/His C); made in house; host or cells: Sf21 insect cells (baculovirus); substrate made in E. coli
T1 sequence (O14920 1-756): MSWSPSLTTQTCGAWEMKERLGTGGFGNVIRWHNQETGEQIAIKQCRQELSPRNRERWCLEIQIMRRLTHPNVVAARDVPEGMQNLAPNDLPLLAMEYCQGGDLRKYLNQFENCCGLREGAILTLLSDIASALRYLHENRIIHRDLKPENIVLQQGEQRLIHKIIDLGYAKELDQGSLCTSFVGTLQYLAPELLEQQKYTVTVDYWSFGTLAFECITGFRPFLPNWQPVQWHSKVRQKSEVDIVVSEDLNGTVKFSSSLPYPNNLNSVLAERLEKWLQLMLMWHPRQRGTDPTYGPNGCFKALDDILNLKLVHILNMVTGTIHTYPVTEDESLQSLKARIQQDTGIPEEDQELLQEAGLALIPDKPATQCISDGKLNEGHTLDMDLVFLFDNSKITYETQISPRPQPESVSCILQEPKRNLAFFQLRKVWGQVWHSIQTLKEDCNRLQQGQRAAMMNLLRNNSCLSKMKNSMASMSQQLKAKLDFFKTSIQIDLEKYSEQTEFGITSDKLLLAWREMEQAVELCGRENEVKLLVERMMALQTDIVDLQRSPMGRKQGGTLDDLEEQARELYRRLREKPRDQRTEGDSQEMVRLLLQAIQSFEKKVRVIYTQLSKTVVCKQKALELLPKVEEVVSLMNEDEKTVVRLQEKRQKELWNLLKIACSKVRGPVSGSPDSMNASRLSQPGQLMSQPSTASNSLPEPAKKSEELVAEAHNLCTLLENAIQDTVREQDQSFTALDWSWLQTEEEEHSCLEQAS
Assay: IKK-β kinase inhibitory assay
Type: biochemical
Conditions: compounds as yielded by solid phase synthesis, purity about 40 to 90%, read-out: In vitro activity grade (In vitro IC50)
Procedure, shortened: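 His-tagged human IKK-β from baculovirus-infected Sf21 cells (0.6 μg/ml final) phosphorylates biotinylated GST-IκBα(1-54) (0.2 μM) in Tris-HCl pH 7.6 buffer with MgCl2. ATP with [γ-33P]ATP added, then 2 h at room temperature. Biotinylated substrate captured on streptavidin plates; bound radioactivity counted by scintillation.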

| SMILES | IC50 [nM] |
| --- | --- |
| N#Cc1c(C2CCCNC2)cc(-c2c(O)cccc2OCc2ccccc2F)nc1N (centres unmarked) [Example 2-25] | < 500 |
| COc1ccc(CN2CCCC(c3cc(-c4c(O)cccc4OCC4CC4)nc(N)c3C#N)C2)cc1 (centres unmarked) [Example 3-08] | 2000 to 10000 |
| CC(C)CCCOc1cccc(O)c1-c1cc(C2CCNCC2)c2c(n1)NC(=O)OC2 [Example 18-15] | < 500 |
| N#Cc1c(C2CCCNC2)cc(-c2c(O)cccc2OCc2ccc(Br)cc2)nc1N (centres unmarked) [Example 2-24] | < 500 |
| CC(C)COC(=O)NCc1c(C2CCCNC2)cc(-c2c(O)cccc2OCC2CC2)nc1N (centres unmarked) [Example 23-09] | < 500 |
| O=C1Nc2nc(-c3c(O)cccc3O)cc(C3CCNCC3)c2CO1 [Example 18-12] | 500 to 2000 |
| CC(C)(C)COC(=O)N1Cc2c(C3CCCNC3)cc(-c3c(O)cccc3OCC3CC3)nc2NC1=O (centres unmarked) [Example 24-07] | < 500 |
| Nc1nc(-c2c(O)cccc2OCc2ccccc2)cc(C2CCCNC2)c1CO (centres unmarked) [Example 12-02] | < 500 |
| N#Cc1c(C2CCCNC2)cc(-c2c(O)cccc2OCCc2ccccc2)nc1N (centres unmarked) [Example 2-41] | < 500 |
| N#Cc1c(C2CCCNC2)cc(-c2c(O)cccc2OCc2cccc(F)c2)nc1N (centres unmarked) [Example 2-27] | < 500 |
| N#Cc1c(C2CCCNC2)cc(-c2c(O)cccc2OCc2ccc(F)cc2)nc1N (centres unmarked) [Example 2-28] | < 500 |
| CC(C)(C)c1ccc(COc2cccc(O)c2-c2cc(C3CCCNC3)c(C#N)c(N)n2)cc1 (centres unmarked) [Example 2-31] | < 500 |
| Cc1ccccc1COc1cccc(O)c1-c1cc(C2CCCNC2)c(C#N)c(N)n1 (centres unmarked) [Example 2-06] | < 500 |
| N#Cc1c(C2CCCNC2)cc(-c2c(O)cccc2OCc2csc3ccc(Cl)cc23)nc1N (centres unmarked) [Example 2-47] | < 500 |
| O=C1Nc2nc(-c3c(O)cccc3OCC3CC3)cc(C3CCNCC3)c2CO1 [Example 18-13] | < 500 |
| N#Cc1c(C2CCCNC2)cc(-c2c(O)cccc2OCc2ccccn2)nc1N (centres unmarked) [Example 2-42] | < 500 |
| N#Cc1c(C2CCCNC2)cc(-c2c(O)cccc2OCc2ccc(Br)cc2)nc1N (centres unmarked) [Example 2-39] | < 500 |
| CN(C)C(=O)N1Cc2c(C3CCCNC3)cc(-c3c(O)cccc3OCC3CC3)nc2NC1=O (centres unmarked) [Example 24-08] | < 500 |
| COc1cccc(O)c1-c1cc(C2CCCNC2)c(C#N)c(N)n1 (centres unmarked) [Example 2-57] | < 500 |

| SMILES | IC50 [nM] |
| --- | --- |
| N#Cc1c(C2CCCNC2)cc(-c2c(O)cccc2OCc2ccncc2)nc1N (centres unmarked) [Example 2-44] | < 500 |
| N#Cc1c(C2CCCN(CCc3ccccc3)C2)cc(-c2ccccc2O)nc1N (centres unmarked) [Example 3-06] | 500 to 2000 |
| CCCN1CCCC(c2cc(-c3ccccc3O)nc(N)c2C#N)C1 (centres unmarked) [Example 3-04] | < 500 |
| Nc1nc(-c2c(O)cccc2OCC2CC2)cc(C2CCCNC2)c1CNC(=S)Nc1ccccc1 (centres unmarked) [Example 23-15] | < 500 |
| N#Cc1c(C2CCCN(Cc3ccccc3)C2)cc(-c2ccccc2O)nc1N (centres unmarked) [Example 3-05] | < 500 |
| CN1CCCC(c2cc(-c3ccccc3O)nc(N)c2C#N)C1 (centres unmarked) [Example 3-03] | < 500 |
| Cc1ccc(COc2cccc(O)c2-c2cc(C3CCCNC3)c(C#N)c(N)n2)cc1 (centres unmarked) [Example 2-35] | < 500 |
| N#Cc1c(C2CCCNC2)cc(-c2c(O)cccc2OCc2ccc(Cl)c(Cl)c2)nc1N (centres unmarked) [Example 2-05] | < 500 |
| CCCOc1cccc(O)c1-c1cc(C2CCCNC2)c(C#N)c(N)n1 (centres unmarked) [Example 2-55] | < 500 |
| N#Cc1c(C2CCCNC2)cc(-c2c(O)cccc2OCc2ccc(F)cc2F)nc1N (centres unmarked) [Example 2-26] | < 500 |
| CC(C)(C)COc1cccc(O)c1-c1cc(C2CCCNC2)c(CO)c(N)n1 (centres unmarked) [Example 12-04] | < 500 |
| O=C1Nc2nc(-c3c(O)cccc3OCc3ccccc3)cc(C3CCCNC3)c2CO1 (centres unmarked) [Example 18-10] | < 500 |
| N#Cc1c(C2CCNCC2)cc(-c2c(O)cccc2OCc2ccccc2)nc1N [Example 2-23] | < 500 |
| CC(C)CCCOc1cccc(O)c1-c1cc(C2CCNCC2)c(CO)c(N)n1 [Example 12-07] | < 500 |
| Cc1cc(COc2cccc(O)c2-c2cc(C3CCCNC3)c(C#N)c(N)n2)no1 (centres unmarked) [Example 2-49] | < 500 |
| N#Cc1c(C2CCCNC2)cc(-c2c(O)cccc2OCc2ccc3ccccc3n2)nc1N (centres unmarked) [Example 2-45] | < 500 |
| Nc1nc(-c2ccccc2O)cc(C2CCCNC2)c1CNC(=O)C1CC1 (centres unmarked) [Example 23-05] | < 500 |
| N#Cc1c(C2CCCNC2)cc(-c2c(O)cccc2OCCCc2ccccc2)nc1N (centres unmarked) [Example 2-50] | < 500 |
| N#Cc1c(C2CCCNC2)cc(-c2c(O)cccc2OCc2ccc(F)c(F)c2)nc1N (centres unmarked) [Example 2-29] | < 500 |

Continued, values first:

| IC50 [nM] | SMILES |
| --- | --- |
| < 500 | CC(C)OC(=O)NCc1c(C2CCCNC2)cc(-c2c(O)cccc2OCC2CC2)nc1N (centres unmarked) [Example 23-08] |
| < 500 | CCCOc1cccc(O)c1-c1cc(C2CCNCC2)c2c(n1)NC(=O)OC2 [Example 18-14] |
| < 500 | CC(C)OC(=O)N1Cc2c(C3CCCNC3)cc(-c3c(O)cccc3OCC3CC3)nc2NC1=O (centres unmarked) [Example 24-05] |
| < 500 | N#Cc1c(C2CCCNC2)cc(-c2c(O)cccc2OCc2ccccc2F)nc1N (centres unmarked) [Example 2-37] |
| < 500 | O=C1Nc2nc(-c3c(O)cccc3OCc3ccccc3)cc(C3CCNCC3)c2CO1 [Example 18-16] |
| < 500 | CN(C)C(=O)NCc1c(C2CCCNC2)cc(-c2c(O)cccc2OCC2CC2)nc1N (centres unmarked) [Example 23-11] |
| < 500 | NC(=O)NCc1c(C2CCCNC2)cc(-c2c(O)cccc2OCC2CC2)nc1N (centres unmarked) [Example 23-13] |
| < 500 | CC(=O)NCc1c(C2CCNCC2)cc(-c2c(O)cccc2OCC2CC2)nc1N [Example 23-07] |
| < 500 | COC(=O)c1ccc(COc2cccc(O)c2-c2cc(C3CCCNC3)c(C#N)c(N)n2)cc1 (centres unmarked) [Example 2-30] |
| < 500 | N#Cc1c(C2CCCNC2)cc(-c2c(O)cccc2OCc2cccnc2)nc1N (centres unmarked) [Example 2-43] |
| < 500 | O=C1Nc2nc(-c3c(O)cccc3F)cc(C3CCCNC3)c2CO1 (centres unmarked) [Example 18-07] |
| < 500 | COc1ccc(CN2CCCC(c3cc(-c4c(O)cccc4O)nc(N)c3C#N)C2)cc1 (centres unmarked) [Example 3-07] |
| < 500 | N#Cc1c(C2CCCNC2)cc(-c2c(O)cccc2OCc2ccccc2-c2ccccc2)nc1N (centres unmarked) [Example 2-22] |
| < 500 | N#Cc1c(C2CCCNC2)cc(-c2c(O)cccc2OCc2ccc(-c3ccccc3)cc2)nc1N (centres unmarked) [Example 2-33] |
| < 500 | CCCNC(=O)NCc1c(C2CCCNC2)cc(-c2c(O)cccc2OCC2CC2)nc1N (centres unmarked) [Example 23-12] |
| < 500 | O=C1Nc2nc(-c3ncccc3O)cc(C3CCCNC3)c2CO1 (centres unmarked) [Example 18-08] |
| < 500 | CC(C)COC(=O)N1Cc2c(C3CCCNC3)cc(-c3c(O)cccc3OCC3CC3)nc2NC1=O (centres unmarked) [Example 24-06] |

| IC50 [nM] | SMILES |
| --- | --- |
| < 500 | N#Cc1c(C2CCCNC2)cc(-c2c(O)cccc2OCCC(c2ccccc2)c2ccccc2)nc1N (centres unmarked) [Example 2-46] |
| < 500 | N#Cc1c(C2CCCNC2)cc(-c2c(O)cccc2OCc2cccc3ccccc23)nc1N (centres unmarked) [Example 2-32] |
| < 500 | N#Cc1c(C2CCCNC2)cc(-c2c(O)cccc2OCC2CCCCC2)nc1N (centres unmarked) [Example 2-53] |
| < 500 | COC(=O)c1ccc(COc2cccc(O)c2-c2cc(C3CCCNC3)c(C#N)c(N)n2)cc1 (centres unmarked) [Example 2-38] |
| < 500 | Nc1nc(-c2c(O)cccc2OCC2CC2)cc(C2CCNCC2)c1CO [Example 12-05] |
| < 500 | N#Cc1c(C2CCNCC2)cc(-c2c(O)cccc2OCCc2ccccc2)nc1N [Example 2-52] |
| < 500 | CCCCCOc1cccc(O)c1-c1cc(C2CCCNC2)c(C#N)c(N)n1 (centres unmarked) [Example 2-60] |
| 2000 to 10000 | Cc1cc(-c2c(O)cccc2OCC2CC2)nc2c1COC(=O)N2 [Example 18-09] |
| < 500 | CCOc1cccc(O)c1-c1cc(C2CCCNC2)c(C#N)c(N)n1 (centres unmarked) [Example 2-58] |
| < 500 | CC(=O)NCc1c(C2CCCNC2)cc(-c2ccccc2O)nc1N (centres unmarked) [Example 23-04] |
| < 500 | C=CCOc1cccc(O)c1-c1cc(C2CCCNC2)c(C#N)c(N)n1 (centres unmarked) [Example 2-56] |
| 500 to 2000 | CCC(=O)NCc1c(C2CCCNC2)cc(-c2ccccc2O)nc1N (centres unmarked) [Example 23-06] |
| < 500 | Nc1nc(-c2c(O)cccc2OCC2CC2)cc(C2CCCNC2)c1CNC(=O)Nc1ccccc1 (centres unmarked) [Example 23-14] |
| < 500 | CCCOc1cccc(O)c1-c1cc(C2CCCNC2)c2c(n1)NC(=O)OC2 (centres unmarked) [Example 18-11] |
| < 500 | N#Cc1c(C2CCCNC2)cc(-c2c(O)cccc2OCc2ccc(C(F)(F)F)cc2)nc1N (centres unmarked) [Example 2-36] |
| < 500 | N#Cc1c(C2CCCNC2)cc(-c2c(O)cccc2OCC(=O)c2ccccc2)nc1N (centres unmarked) [Example 2-51] |
